Source: publication PMC11583123, “Linker Chemistry and Connectivity Fine-Tune the Immune Response and Kinetic Solubility of Conjugated NOD2/TLR7 Agonists” (Bioconjugate Chemistry, 2024)
Entries after “also recorded” stand apart in the source; their conditions may differ.

What was measured:
[1] = biological target: T1, human TLR8 (Homo sapiens, UniProt Q9NR97); assay: HEK-Blue TLR8 NF-κB SEAP reporter assay; format: cell-based; conditions: HEK-Blue TLR8 cells; for EC50: 18 h, eight concentrations (1 nM to 10 μM), mean ± SEM; for TLR8 agonistic activity (in words): up to 10 μM
T1 construct: host or cells: HEK-Blue TLR8 (HEK293-derived)
T1 sequence (Q9NR97 27-1041): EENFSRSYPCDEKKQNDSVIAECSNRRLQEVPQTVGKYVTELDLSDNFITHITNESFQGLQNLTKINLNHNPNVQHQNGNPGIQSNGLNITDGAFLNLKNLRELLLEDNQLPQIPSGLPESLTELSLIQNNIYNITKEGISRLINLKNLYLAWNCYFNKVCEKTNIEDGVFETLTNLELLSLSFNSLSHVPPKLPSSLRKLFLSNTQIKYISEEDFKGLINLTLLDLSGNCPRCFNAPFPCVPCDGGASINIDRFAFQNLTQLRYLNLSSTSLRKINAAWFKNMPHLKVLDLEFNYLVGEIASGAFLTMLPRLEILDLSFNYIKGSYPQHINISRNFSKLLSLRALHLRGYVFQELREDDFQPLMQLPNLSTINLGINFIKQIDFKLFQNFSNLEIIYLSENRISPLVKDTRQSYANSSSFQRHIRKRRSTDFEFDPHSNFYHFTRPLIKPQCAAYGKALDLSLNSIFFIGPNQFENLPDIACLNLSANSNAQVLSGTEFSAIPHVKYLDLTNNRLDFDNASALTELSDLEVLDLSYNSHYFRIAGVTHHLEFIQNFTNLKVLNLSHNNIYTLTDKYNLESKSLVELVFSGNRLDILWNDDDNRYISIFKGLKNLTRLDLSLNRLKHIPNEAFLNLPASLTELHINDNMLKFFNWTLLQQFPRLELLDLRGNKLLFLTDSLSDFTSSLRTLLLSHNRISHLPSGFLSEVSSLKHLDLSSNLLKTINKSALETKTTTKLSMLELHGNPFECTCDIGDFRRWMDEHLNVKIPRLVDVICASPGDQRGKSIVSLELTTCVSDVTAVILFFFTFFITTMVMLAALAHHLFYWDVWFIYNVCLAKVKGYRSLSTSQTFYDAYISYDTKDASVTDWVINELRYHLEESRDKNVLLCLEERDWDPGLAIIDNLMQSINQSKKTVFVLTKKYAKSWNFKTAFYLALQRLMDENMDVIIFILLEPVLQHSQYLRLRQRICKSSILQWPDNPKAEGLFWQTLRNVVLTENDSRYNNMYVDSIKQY
From the text: The building blocks and synthesized conjugates were initially assessed for their receptor-specific activities toward NOD2, TLR7 and TLR8 using the commercially available HEK-Blue NOD2, TLR7 and TLR8 reporter cell lines. These cell lines were derived from HEK293 cells by cotransfection of human NOD2/TLR7/TLR8 and an NF-κB-inducible secreted embryonic alkaline phosphatase (SEAP). Activation of NOD2/TLR7/TLR8, and subsequently of NF-κB, leads to the expression and secretion of SEAP, the levels of which can be quantified colorimetrically. […]
3.1. Hek-Blue NOD2, TLR7 and TLR8 cells.
HEK-Blue NOD2, TLR7, and TLR8 cells (Invivogen, San Diego, CA, USA) were cultured according to the manufacturer instructions in Dulbecco’s modified Eagle’s medium (Sigma-Aldrich, St. Louis, MO, USA) supplemented with 10% heat-inactivated fetal bovine serum (Gibco), 2 mM L-glutamine (Sigma-Aldrich), 100 U/mL penicillin (Sigma-Aldrich), 100 µg/mL streptomycin (Sigma-Aldrich), and 100 µg/mL Normocin (Invivogen) for two passages. All subsequent passages of NOD2 and TLR8 cells were cultured in medium additionally supplemented with 100 µg/mL Zeocin and 30 µg/mL Blasticidin (Invivogen) and of TLR7 cells with 100 µg/mL Zeocin and 10 µg/mL Blasticidin. […]
The tested compounds were dissolved in DMSO and further diluted in culture medium to the desired final concentrations, such that the final DMSO concentration never exceeded 0.1%. […]
3.4 NOD2/TLR7/TLR8 NF-kB reporter assay
HEK-Blue NOD2 cells (25,000 cells/well), TLR7 and TLR8 cells (40,000 cells/well) were seeded in 96-well plates in 100 µL HEK-Blue detection medium (Invivogen, San Diego, CA, USA) and treated with […]
corresponding vehicle (0.1% DMSO). After 18 h of incubation (37 °C, 5% CO2), secreted embryonic

[2] = system: human primary peripheral blood mononuclear cells (PBMCs); assay: Cytokine release from peripheral blood mononuclear cells (LEGENDplex); format: cell-based; conditions: 1 μM, 18 h, Figure S2
Protocol: Third, the immunostimulatory potential of synthesized conjugates was assessed in human primary peripheral blood mononuclear cells (PBMCs) (Figure 3, Supporting Table), which represent a diverse array of immune cell subpopulations, providing a more physiologically relevant system for studying concurrent NOD2/TLR7 or NOD2/TLR7/TLR8 activation. […]
software (version 9; GraphPad Software, CA, USA). The experiments were run in duplicates, and repeated as at least three independent biological replicates.
3.5 Cytokine Release from Peripheral Blood Mononuclear Cells […]
growth medium and treated with the compounds (1 μM), or the corresponding vehicle (0.1% DMSO).
Cell-free supernatants were collected after 18 h of incubation (37 °C, 5% CO2) and stored at −80 °C until tested. Cytokine concentrations were determined with the LEGENDplex™ HU Essential Immune Response Panel (Biolegend) on an Attune NxT flow cytometer (Thermo Fisher Scientific, Waltham, MA). […] The data were analyzed using the FlowJo (Tree Star, Inc., Ashland, OR) and Prism (GraphPad, San Diego, CA) software.
Statistical significance was determined with one-way ANOVA with subsequent Dunnett’s multiple […]
The data were analyzed using Prism software (version 9; GraphPad Software, CA, USA). Statistical significance was determined according to the specific procedures outlined in each experiment. […]

SMILES	EC50 [1]	TLR8 agonistic activity (in words) [1]	Cytokine release versus combinations of 5 + 6 or 5 + 7 (in words) [2]
CCOCc1nc2c(NC(=O)CCCCCNC(=O)CC[C@@H](NC(=O)[C@@H](NC(=O)CNC(=O)/C=C/c3ccc(O)c(OC)c3)C(C)C)C(=O)OCC)nc3ccccc3c2n1CC(C)(C)O [compound 32]	> 10 µM	neither 32 nor 33 were able to induce any TLR8 agonistic activity	devoid of any potential synergistic effect; also recorded: not significantly increased
CCOCc1nc2c(N)nc3ccccc3c2n1CC(C)(C)NC(=O)CCCCCNC(=O)CC[C@@H](NC(=O)[C@@H](NC(=O)CNC(=O)/C=C/c1ccc(O)c(OC)c1)C(C)C)C(=O)OCC [compound 33]	> 10 µM	neither 32 nor 33 were able to induce any TLR8 agonistic activity	devoid of any potential synergistic effect; also recorded: not significantly increased
